Test results taken from PMC10253812, “Novel 2-alkythio-4-chloro-N-[imino(heteroaryl)methyl]benzenesulfonamide Derivatives: Synthesis, Molecular Structure, Anticancer Activity and Metabolic Stability” (International Journal of Molecular Sciences, 2023).

Legend:
HeLa cells = test: Cell cycle distribution analysis (PI staining, flow cytometry); type: cell-based, human; conditions: 48 h; for percentage of cells in the sub-G1 phase of the cell cycle: HeLa, 5, 7 and 10 µM
Experimental: The effects of compounds 11, 12 and 13 on the cell cycle phase distribution of HeLa cells were assessed by flow cytometry. The cells were treated with 5, 7 and 10 µM concentrations of […] and 13 for 48 h and stained with PI.
Cell Cycle Distribution Analysis: The effects of 11, 12 and 13 on the cell cycle distribution in HeLa cells were determined by flow cytometry analysis. The cells were treated with 11, 12 and 13 (5, 7 and 10 µM) for 48 h, after which they were fixed in cold 70% ethanol for 24 h. The fixed cells were treated with 100 µg/mL of RNAse (Invitrogen, Germany) and stained with 10 µg/mL of PI (Invitrogen, Germany) for 30 min at RT. The acquisition was performed on a FACSCalibur cytometer (BD), and the data were analyzed with Flowing software (version 2.5).

[1] = system: MCF-7 (breast cancer) cell line; test: MTT cell viability assay, MCF-7; type: cell-based, human; conditions: Homo sapiens, MCF7; for viability at 100 µM: MCF-7, MTT, 72 h, read-out: Viability of cell line in the presence of 100 μM of the tested compound
Experimental: (§1) Compounds 8–24 were evaluated in vitro for their cytotoxic effect against three human cancer cell lines, i.e., HeLa (cervical cancer), HCT-116 (colon cancer) and MCF-7 (breast cancer), and the non-tumor cell line HaCaT using the MTT assay after 72 h of incubation. The results of tests are presented in Table 1 as IC50, indicating the concentration required for 50% inhibition of cell viability. Compounds 8–10 and 14–18 are not presented in the Table 1 because of their low potency (IC50 > 100 µM).
(§2) All chemicals, if not stated otherwise, were obtained from Sigma-Aldrich (St. Louis, MO, USA). The MCF-7, HeLa and HaCaT cell lines were purchased from Cell Lines Services (Eppelheim, Germany), and the HCT-116 cell line was purchased from ATCC (ATCC-No: CCL-247). The cells were cultured in Dulbecco’s modified Eagle’s medium (DMEM) supplemented with 10% fetal bovine serum, 2 mM glutamine, 100 units/mL of penicillin and 100 μg/mL of streptomycin. The cultures were maintained in a humidified atmosphere with 5% CO2 at 37 °C, in an incubator (Heraeus, HeraCell).
(§3) Cytotoxicity assay: Cell viability was determined using the MTT (3-(4,5-dimethylthiazol-2-yl)-2,5diphenyltetrazoliumbromide) assay. The cells were seeded in 96-well plates at a density of 5 × 10^3 cells/well and treated for 24, 48 and 72 h with the examined compounds in the concentration range 1–100 μM. Following treatment, MTT (0.5 mg/mL) was added to the medium, and the cells were further incubated for 2 h at 37 °C. the cells were lysed with DMSO, and the absorbance of the formazan solution was measured at 550 nm with a plate reader (Victor, 1420 multilabel counter). The experiment was performed in triplicate. The values are expressed as the mean ± SD of at least three independent experiments.

[2] = system: HCT-116 (colon cancer) cell line; test: MTT cell viability assay, HCT-116; type: cell-based; conditions: Homo sapiens, 72 h of incubation
Experimental: as §1, §2, §3

[3] = system: HaCaT (immortalized human keratinocytes); test: MTT cell viability assay, non-tumor HaCaT; type: cell-based; conditions: Homo sapiens, HaCaT, 72 h of incubation, non-tumor cell line
Experimental: as §1
We also performed an assay on the non-tumor cell line HaCaT (immortalized human keratinocytes) to assess if the effect of 11–13 was selective toward HeLa cells or resulted from a more general toxic activity.
as §2, §3

[4] = In vitro metabolic stability assay; type: in vitro ADME, human; conditions: for half-life at 10 μM: pH 7.4, human liver microsomes 0.5 mg/mL, 1 mM NADPH, 10 μM compound, 37 °C, n = 3, read-out: in vitro metabolic half-life t1/2
Experimental: Human liver microsomes along with NADPH were used to assess their susceptibility to undergo first-phase oxidation reactions. The progress of biotransformation was followed by liquid chromatography–mass spectrometry. In order to support the in vitro results, we performed in silico calculations using the Human Liver Microsome-based model for CYP-mediated oxidations provided by the Xenosite online tool.
Stock solutions of the studied compounds were prepared at a concentration of 10 mM in DMSO. […] The incubation mixture contained the studied derivative at a 10 μM concentration, 1 mM NADPH (Sigma-Aldrich) and 0.5 mg/mL of human liver microsomes (HLM, Sigma-Aldrich) in potassium phosphate buffer (0.1 M, pH 7.4). The incubation was carried out in a thermostat at 37 °C and started by the addition of the compound of interest. Then, 20 μL samples were taken after 5, 15, 30, 45 and 60 min. The enzymatic reaction was terminated by the addition of an equal volume of ice-cold acetonitrile containing 10 μM sulfamethoxazole as an internal standard. Control incubations were performed without NADPH as a negative control reflecting NADPH-independent processes, such as chemical degradation and precipitation. After collection, the samples were immediately centrifuged (10 min, 10,000 rpm), and the resulting supernatant was directly analyzed or kept at −80 °C until LC-MS analysis. The natural logarithm of a compound over the IS peak area ratio was plotted vs. the incubation time.
The LC-MS analysis was performed on an Agilent 1260 system coupled to SingleQuad 6120 mass spectrometer (Agilent Technologies, Santa Clara, CA, USA). Poroshell EC-C18 (2.1 mm × 150 mm, 2.7 μm, Agilent Technologies, Santa Clara, CA, USA) was used in reversed-phase mode with gradient elution starting with 90% of phase A (0.1% formic acid in water) and 10% of phase B (0.1% dormic acid in acetonitrile). […] The total analysis time was 21 min at 25 °C, the flow rate was 0.5 mL/min, and the injection volume was 20 μL. The mass spectrometer was equipped with an electrospray ion source and operated in positive ionization mode. The mass analyzer was set for each individual compound to detectthe [M+H]^+ protonated molecule. The MSD parameters of the ESI source were as follows: nebulizer pressure 40 psig (N2), drying gas […] (N2), drying gas temperature 300 °C, capillary voltage 3.0 kV, fragmentor voltage 150 V.

IC50 [2] | half-life at 10 μM [4] | IC50 ([1]; MTT assay, 72 h of incubation) | Structure (SMILES) | percentage of cells in the sub-G1 phase of the cell cycle (HeLa cells) | viability at 100 µM [1] | IC50 [3] | cell cycle arrest (HeLa cells; HeLa, 7 and 10 μM) | relative metabolic stability in vitro ([4]; human liver microsomes with NADPH, order 12 > 13 > 11)
73 ± 2 µM | 13.9 min |  | Cc1cc(S(=O)(=O)NC(=N)n2ccn(C)c2=S)c(SCc2cccc3ccccc23)cc1Cl [Compound 13, 4-Chloro-N-[imino(3-methyl-2-thioxo-2,3-dihydro-1H-imidazol-1-yl)methyl]-5-methyl-2-(naphthalen-1-ylmethylthio)benzenesulfonamide] | increase in the percentage of cells in the sub-G1 phase | 100% | 18 ± 0.5 µM |  | 
11 ± 0.3 µM | 9.1 min | > 100 µM | Cc1cc(S(=O)(=O)NC(=N)n2ccn(C)c2=S)c(SCc2ccc(Cl)cc2)cc1Cl [Compound 11, 4-Chloro-N-[imino(3-methyl-2-thioxo-2,3-dihydro-1H-imidazol-1-yl)methyl]-5-methyl-2-(4-chlorobenzylthio)benzenesulfonamide] | increase in the percentage of cells in the sub-G1 phase |  | 18 ± 0.5 µM |  | 
> 100 µM | 20.3 min |  | Cc1cc(S(=O)(=O)NC(=N)n2ccn(C)c2=S)c(SCc2cc3c(cc2Cl)OCO3)cc1Cl [Compound 12] | increase in the percentage of cells in the sub-G1 phase | 100% | 20 ± 1 µM | induced G2/M arrest | exhibited the best stability in vitro among the studied set of compounds
